# Tests used:
# Barnyard grass (BG) [1] = assay: Post-emergence herbicide test; type: in vivo; settings: Echinochloa crus-galli, 336 h, two weeks after treatment
# Outline: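 Greenhouse pot-grown barnyard grass seedlings sprayed post-emergence at 8 lbs active compound per acre (some at 4 lbs/acre) in 38 gallons per acre, then sub-irrigated. Injury or control rated visually two weeks after treatment.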
# Amaranth pigweed (PW) [2] = assay: Pre-emergence herbicide test; type: in vivo, Amaranthus retroflexus; settings: 336 h, two weeks after treatment
# Outline: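 Pigweed was surface-seeded in potted soil one day before spraying at 8 lbs compound per acre, or 4 lbs/acre, in 38 gallons per acre. Pots were kept in the greenhouse with sub-irrigation only; injury or control was rated visually two weeks after treatment.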
# [3] = test system: Yellow foxtail grass (YF); assay: Pre-emergence herbicide test; type: in vivo, Setaria glauca; settings: Setaria, 336 h, two weeks after treatment
# Outline: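 Seeds surface-sown in potting soil one day before spraying; compounds applied pre-emergence at 8 or 4 lbs/acre in 38 gallons/acre spray. Pots held in greenhouse with sub-irrigation only. Injury or control rated visually two weeks after treatment.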
# Corn (CN) [4] = assay: Post-emergence herbicide test; type: in vivo; settings: Zea mays, 336 h, two weeks after treatment
# Outline: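 Greenhouse seedlings grown in potting soil and sprayed post-emergence at 8 lbs compound/acre (formulations also made for 4 lbs/acre) in 38 gallons/acre spray volume. Watering by sub-irrigation only. Injury or control rated visually two weeks after treatment.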
# Cotton (CT) [5] = assay: Pre-emergence herbicide test; type: in vivo, Gossypium hirsutum var. DPL smooth leaf; settings: Gossypium hirsutum, 336 h, two weeks after treatment
# Outline: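 Crop and weed species seeded one day before treatment, then sprayed pre-emergence at 8 lbs actual compound per acre (also 4 lbs/acre formulations) in 38 gallons per acre. Pots kept in greenhouse with sub-irrigation only; injury or control visually rated two weeks after treatment.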
# Bean (BN) [6] = assay: Post-emergence herbicide test; type: in vivo, Phaseolus vulgaris var. Black Valentine; settings: Phaseolus vulgaris, post-emergence, 336 h, two weeks after treatment
# Outline: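 Snapbean (Phaseolus vulgaris var. Black Valentine) was tested post-emergence. Four seeds were sown in 3' plastic pots of potting soil at a depth equal to the seed diameter, then sub-irrigated in greenhouse trays. Planting dates were staggered so plants were sprayed once primary leaves had expanded, with the growing point at the primary leaf nodes.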
# Corn (CN) [7] = assay: Pre-emergence herbicide test; type: in vivo; settings: Zea mays, 336 h, two weeks after treatment
# Outline: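 Four corn seeds per pot, sown at seed-diameter depth one day before spraying, got soil surface treatment at 8 lbs/acre (4 lbs/acre formulations also prepared) in 38 gallons/acre. Pots were greenhouse-held with sub-irrigation only. Injury or control was scored visually two weeks after treatment.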
# [8] = test system: Yellow foxtail grass (YF); assay: Post-emergence herbicide test; type: in vivo, Setaria glauca; settings: Setaria, 336 h, two weeks after treatment
# Outline: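 Potted seedlings grown in greenhouse, planting staggered to reach the target stage together, then sprayed post-emergence at 8 lbs actual compound/acre in 38 gallons/acre (4 lbs/acre formulations also prepared). Sub-irrigated afterwards. Injury or control rated visually two weeks after treatment.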
# [9] = test system: variety of crops and weed species; assay: Pre- and post-emergence herbicide tests, overall assessment of Tables III-VI; type: in vivo; settings: data of Tables III-VI
# Outline: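 Crops and weeds grown in potting soil were sprayed at 8 lbs. compound per acre in 38 gallons per acre, pre-emergence pots seeded one day before treatment. Injury or control was visually rated two weeks after treatment.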
# Bean (BN) [10] = assay: Pre-emergence herbicide test; type: in vivo, Phaseolus vulgaris var. Black Valentine; settings: Phaseolus vulgaris, 336 h, two weeks after treatment
# Outline: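 Black Valentine bean was seeded in potting soil one day before spraying. Compound was applied pre-emergence at 8 lbs/acre (also 4 lbs/acre) in 38 gallons per acre. Plants were sub-irrigated and injury or control was rated visually after two weeks.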
# Amaranth pigweed (PW) [11] = assay: Post-emergence herbicide test; type: in vivo, Amaranthus retroflexus; settings: 336 h, two weeks after treatment
# Outline: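 Pot-grown pigweed was sprayed post-emergence at the 1–2 true-leaf stage with compound at rates equivalent to 8 lbs per acre (formulations also prepared for 4 lbs/acre) in 38 gallons per acre, using a hood with fixed nozzle. Plants were sub-irrigated in the greenhouse, and injury or control was rated visually two weeks after treatment.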
# Crabgrass (CG) [12] = assay: Pre-emergence herbicide test; type: in vivo, Digitaria sanquinalis; settings: Digitaria sanguinalis, pre-emergence, 336 h, two weeks after treatment
# Outline: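 Crabgrass (Digitaria sanquinalis) was surface seeded in 3' plastic pots of potting soil, covered with screened soil, and watered by sub-irrigation in greenhouse trays. Pots were seeded one day before spraying in a hood with a moving belt and fixed nozzle. Plants stayed in the greenhouse on sub-irrigation, and pre-emergence control was rated visually two weeks after treatment.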
# Crabgrass (CG) [13] = assay: Post-emergence herbicide test; type: in vivo, Digitaria sanquinalis; settings: Digitaria sanguinalis, post-emergence, 336 h, two weeks after treatment
# Outline: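 Crabgrass (Digitaria sanquinalis) was surface seeded individually in 3' plastic pots of potting soil, covered with screened soil, and watered by sub-irrigation in greenhouse trays. Planting was staggered so seedlings reached the target stage together. Post-emergence sprays were applied in a hood with a removable belt and fixed nozzle, and control was visually rated two weeks after treatment.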
# Turnip (TP) [14] = assay: Pre-emergence herbicide test; type: in vivo, Brassica sp.; settings: Brassica rapa, pre-emergence, 336 h, two weeks after treatment
# Outline: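 Turnip (Brassica sp.) seeds were surface sown in 3' plastic pots of potting soil, covered with a thin layer of screened soil, and sub-irrigated in greenhouse trays. Pots were seeded one day ahead of treatment, sprayed pre-emergence under a hood with a fixed nozzle and moving belt, then kept in the greenhouse.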
# Johnson grass (JG) [15] = assay: Pre-emergence herbicide test; type: in vivo, Sorgum helepense; settings: Sorghum halepense, 336 h, two weeks after treatment
# Outline: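 Pots seeded one day before spraying; compound applied pre-emergence at 8 lbs/acre (or 4 lbs/acre) in 38 gallons/acre spray volume. Sub-irrigated in greenhouse; injury/control rated visually two weeks after treatment.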
# Turnip (TP) [16] = assay: Post-emergence herbicide test; type: in vivo, Brassica sp.; settings: Brassica rapa, post-emergence, 336 h, two weeks after treatment
# Outline: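 A greenhouse post-emergence herbicide test on turnip. Seeds were sown on the surface of potting soil in 3' plastic pots, lightly covered with screened soil and watered from below. Planting was timed so seedlings had 1 or 2 true leaves above the cotyledons at spraying, done in a hood with a fixed nozzle. Control or injury was scored by eye after two weeks.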
# Johnson grass (JG) [17] = assay: Post-emergence herbicide test; type: in vivo, Sorgum helepense; settings: Sorghum halepense, 336 h, two weeks after treatment
# Outline: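 Greenhouse pot-grown seedlings sprayed post-emergence at 8 lbs compound per acre (some at 4 lbs/acre) in 38 gallons per acre spray volume. Sub-irrigated thereafter. Injury/control rated visually two weeks after treatment.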
# Barnyard grass (BG) [18] = assay: Pre-emergence herbicide test; type: in vivo; settings: Echinochloa crus-galli, 336 h, two weeks after treatment
# Outline: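 Barnyard grass surface-seeded in potting soil and sprayed pre-emergence one day after seeding, at 8 or 4 lb compound/acre in 38 gal/acre spray volume. Pots kept in greenhouse with sub-irrigation only; injury or control rated visually two weeks after treatment.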
# Cotton (CT) [19] = assay: Post-emergence herbicide test; type: in vivo, Gossypium hirsutum var. DPL smooth leaf; settings: Gossypium hirsutum, post-emergence, 336 h, two weeks after treatment
# Outline: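 Cotton (Gossypium hirsutum var. DPL smooth leaf) was grown in 3' plastic pots of potting soil, four seeds per pot, planted at a depth equal to the seed diameter and watered by sub-irrigation. At the stage of expanded cotyledons with the first true leaf 1' long, plants were sprayed post-emergence in a hood with a fixed nozzle over a moving belt. Percent control was rated visually two weeks later.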
structure (smiles),measurement,setting,value
CCN(C(=O)NC)c1nnc(C(F)(F)F)s1 [Example 37],pest or weed control at 2241.7 g/ha,Barnyard grass (BG) [1]; 2 lb/acre,20%
same,pest or weed control at 4483.4 g/ha,Barnyard grass (BG) [1]; 4 lb/acre,30%
same,pest or weed control at 8966.8 g/ha,Barnyard grass (BG) [1]; 8 lb/acre,90%
same,pest or weed control at 2241.7 g/ha,Amaranth pigweed (PW) [2]; 2 lb/acre,90%
same,pest or weed control at 4483.4 g/ha,Amaranth pigweed (PW) [2]; 4 lb/acre,100%
same,pest or weed control at 8966.8 g/ha,Amaranth pigweed (PW) [2]; 8 lb/acre,100%
same,pest or weed control at 2241.7 g/ha,[3]; 2 lb/acre,70%
same,pest or weed control at 4483.4 g/ha,[3]; 4 lb/acre,80%
same,pest or weed control at 8966.8 g/ha,[3]; 8 lb/acre,90%
same,pest or weed control,Corn (CN) [4]; 2 lb/acre,20%
same,pest or weed control at 4483.4 g/ha,Corn (CN) [4]; 4 lb/acre,80%
same,pest or weed control at 8966.8 g/ha,Corn (CN) [4]; 8 lb/acre,80%
same,pest or weed control at 2241.7 g/ha,Cotton (CT) [5]; 2 lb/acre,40%
same,pest or weed control at 4483.4 g/ha,Cotton (CT) [5]; 4 lb/acre,40%
same,pest or weed control at 8966.8 g/ha,Cotton (CT) [5]; 8 lb/acre,60%
same,pest or weed control at 2241.7 g/ha,Bean (BN) [6]; 2 lb/acre,90%
same,pest or weed control at 4483.4 g/ha,Bean (BN) [6]; 4 lb/acre,100%
same,pest or weed control at 8966.8 g/ha,Bean (BN) [6]; 8 lb/acre,100%
same,pest or weed control at 2241.7 g/ha,Corn (CN) [7]; 2 lb/acre,30%
same,pest or weed control at 4483.4 g/ha,Corn (CN) [7]; 4 lb/acre,40%
same,pest or weed control at 8966.8 g/ha,Corn (CN) [7]; 8 lb/acre,50%
same,pest or weed control,[8]; 2 lb/acre,30%
same,pest or weed control at 4483.4 g/ha,[8]; 4 lb/acre,50%
same,pest or weed control at 8966.8 g/ha,[8]; 8 lb/acre,90%
same,"herbicidal effectiveness / selectivity, in words",[9],extremely effective when applied to a variety of crops and weed species
same,pest or weed control at 2241.7 g/ha,Bean (BN) [10]; 2 lb/acre,80%
same,pest or weed control at 4483.4 g/ha,Bean (BN) [10]; 4 lb/acre,70%
same,pest or weed control at 8966.8 g/ha,Bean (BN) [10]; 8 lb/acre,90%
same,pest or weed control at 2241.7 g/ha,Amaranth pigweed (PW) [11]; 2 lb/acre,90%
same,pest or weed control at 4483.4 g/ha,Amaranth pigweed (PW) [11]; 4 lb/acre,100%
same,pest or weed control at 8966.8 g/ha,Amaranth pigweed (PW) [11]; 8 lb/acre,100%
same,pest or weed control,Crabgrass (CG) [12]; 2 lb/acre,90%
same,pest or weed control at 4483.4 g/ha,Crabgrass (CG) [12]; 4 lb/acre,90%
same,pest or weed control at 8966.8 g/ha,Crabgrass (CG) [12]; 8 lb/acre,90%
same,pest or weed control,Crabgrass (CG) [13]; 2 lb/acre,30%
same,pest or weed control at 4483.4 g/ha,Crabgrass (CG) [13]; 4 lb/acre,40%
same,pest or weed control at 8966.8 g/ha,Crabgrass (CG) [13]; 8 lb/acre,90%
same,pest or weed control at 2241.7 g/ha,Turnip (TP) [14]; 2 lb/acre,100%
same,pest or weed control at 4483.4 g/ha,Turnip (TP) [14]; 4 lb/acre,100%
same,pest or weed control at 8966.8 g/ha,Turnip (TP) [14]; 8 lb/acre,100%
same,pest or weed control at 2241.7 g/ha,Johnson grass (JG) [15]; 2 lb/acre,60%
same,pest or weed control at 4483.4 g/ha,Johnson grass (JG) [15]; 4 lb/acre,70%
same,pest or weed control at 8966.8 g/ha,Johnson grass (JG) [15]; 8 lb/acre,60%
same,pest or weed control at 2241.7 g/ha,Turnip (TP) [16]; 2 lb/acre,90%
same,pest or weed control at 4483.4 g/ha,Turnip (TP) [16]; 4 lb/acre,90%
same,pest or weed control at 8966.8 g/ha,Turnip (TP) [16]; 8 lb/acre,100%
same,pest or weed control,Johnson grass (JG) [17]; 2 lb/acre,20%
same,pest or weed control at 4483.4 g/ha,Johnson grass (JG) [17]; 4 lb/acre,30%
same,pest or weed control at 8966.8 g/ha,Johnson grass (JG) [17]; 8 lb/acre,70%
same,pest or weed control at 2241.7 g/ha,Barnyard grass (BG) [18]; 2 lb/acre,50%
same,pest or weed control at 4483.4 g/ha,Barnyard grass (BG) [18]; 4 lb/acre,60%
same,pest or weed control at 8966.8 g/ha,Barnyard grass (BG) [18]; 8 lb/acre,90%
same,pest or weed control at 2241.7 g/ha,Cotton (CT) [19]; 2 lb/acre,100%
same,pest or weed control at 4483.4 g/ha,Cotton (CT) [19]; 4 lb/acre,100%
same,pest or weed control at 8966.8 g/ha,Cotton (CT) [19]; 8 lb/acre,100%

# Source: patent US4175081A, “5-Substituted thiadiazole ureas” (priority 1977, dated 1979)
